The source of these data is patent US20220119376A1, “TRICYCLIC COMPOUNDS ACTING ON CRBN PROTEINS” (CHIA TAI TIANQING PHARMACEUTICAL GROUP CO., LTD., priority 2018, published 2022).

Structures can show the parent of a compound that is named as a salt.

The test system of one series is MM.1S. Description: Antiproliferative effect in multiple myeloma cell line MM.1S (CellTiter-Glo). The following applies: Homo sapiens, MM1.S, 120 h, MM.1S cells, 5 days of compound co-incubation. It counts as cell-based. How it is done: (§1) Periodical passaging was performed, and cells in logarithmic growth phase were taken for plating. • (1) Cells were stained with trypan blue and viable cells were counted. • (2) The cell concentration was adjusted to an appropriate level. [table] • (3) 90 μL of cell suspension was added to each well in the culture plate and cell-free medium was added to the blank control wells according to the table above. • (4) The culture plate was incubated overnight in an incubator at 37° C./5% CO2 and 100% relative humidity. […] It was prepared freshly prior to use. […] After the compound or DMSO was added, the mixture was pipetted and mixed well. […] 10 μL of DMSO-cell culture mixture was added to the vehicle control and blank control wells. […] The following procedure was performed according to the instructions of Promega CellTiter-Glo luminescence cell viability assay kit (Promega-G7573). […] The cell plate was wrapped with aluminum foil to keep out of light. (7) The plate was shaken on an orbital shaker for 2 min to induce cell lysis. (8) The culture plate was placed at room temperature for 10 min to stabilize the luminescence signals. (9) The luminescence signals were detected on 2104 EnVision plate reader. […] Inhibition rates of compounds at different concentrations were calculated in Excel, followed by plotting the inhibition curves and calculating relevant parameters including minimum inhibition rate (%), maximum inhibition rate (%) and IC50 using GraphPad Prism software.

The subject of the next series is NCI-H929. Description: Antiproliferative effect in myeloma cell line NCI-H929 (CellTiter-Glo). It is filed as cell-based. The following applies: Homo sapiens, 120 h, NCI-H929 cells, 5 days of compound co-incubation. On the procedure: as §1
The nature of series [1]: Pharmacokinetic evaluation of compounds in mice. Particulars: male, C57BL, mouse, in vivo. The source says: The test animals in the study were C57BL male mice, and the LC/MS/MS method was used to quantitatively determine the drug concentration in the plasma of the mice at different time points after intravenous injection or oral administration of the test compounds and the reference compound, thus evaluating the pharmacokinetic characteristics of the test drugs in the mice.
C57Balb/C (C57) mice (male, 20-30 g, 7-10 weeks old, Beijing Vital River or Shanghai SLAC).
Clear or suspended solution of the test compound was injected into C57 mice (overnight fasting) via the tail vein or administered intragastrically to C57 mice (overnight fasting). For intravenous injection, […] of blood was each collected by jugular vein puncture at 0 h (before injection) and 0.0833 h, 0.25 h, 0.5 h, 1 h, 2 h, 4 h, 6 h, 8 h and 24 h (after injection), and then placed in an anticoagulation tube added with EDTA-K2 (Jiangsu KANGJIAN Medical Apparatus Co., Ltd.), and the mixture was thoroughly vortex-mixed at 4° C. and centrifuged at 13000 rpm for 10 min; for intragastric administration, blood was collected by jugular vein puncture at 0 h (before administration) and 0.5 h, 1 h, 2 h, 4 h, 6 h, 8 h and 24 h (after administration), and then placed in an anticoagulation tube added with EDTA-K2 (Jiangsu KANGJIAN Medical Apparatus Co., Ltd.), and the mixture was thoroughly vortex-mixed and centrifuged at 13000 rpm for 10 min. The plasma concentration was measured by LC-MS/MS method, and the relevant pharmacokinetic parameters were calculated by WinNonlin™ Version 6.3 (Pharsight, Mountain View, Calif.) pharmacokinetic software using non-compartmental model linear logarithmic trapezoid method.

In series [2] the test system is human myeloma MM.1S cells. In words: In vivo pharmacodynamic study in subcutaneous xenograft tumor CB-17 SCID model of human myeloma MM.1S cells. More on the design: species or system CB-17 SCID mice. The following applies: for Tumor volume (Day 0): Day 0 (baseline at grouping), 5 mg/kg oral twice daily; for Tumor volume (Day 24) / TGI (Day 24): Day 24, 5 mg/kg oral twice daily; for TGI (Day 24): tumor growth inhibition vs vehicle control. How it is done:
Cell culturing: human multiple myeloma cells MM.1S (ATCC® CRL-2974™) were cultured in vitro, in a semi-suspension manner, with an ATCC-formulated RPMI-1640 medium containing 10% fetal calf serum, 100 U/mL penicillin and 100 μg/mL streptomycin in an incubator at 37° C./5% CO2. Passages were performed twice a week.
At a required number, the cells were taken, counted and inoculated.
Animals: CB-17 SCID mice, female, 6-8 weeks old, weight of 18-20 g.
0.2 mL (5×10^6 cells) of MM.1S cells (along with matrigel in a volume ratio of 1:1) was subcutaneously inoculated on the right back of each mouse, and the mice were divided into groups for administration after the mean tumor volume was approximately 130 mm^3. Seven days constitute an administration cycle, twice daily with a 12 h interval, and the test compound was orally administered for a total of four cycles. Test compounds WX009 and WX023 were administered at a dose of 5 mg/kg, tumor volume was measured twice weekly with a two-dimensional caliper, and the volume was measured in cubic millimeters and calculated according to the following formula: V=0.5 a×b2 where a and b are the long and short diameters, respectively, of the tumor. Anti-tumor efficacy was determined by dividing the mean tumor increase volume of compound-treated animals by the mean tumor increase volume of untreated animals.
On the technique in general: In xenograft studies the graft and the host belong to different species.

The nature of series [3]: Pharmacokinetic evaluation of compounds in rats. It is filed as in vivo, SD male rats. The following applies: for clearance / half-life / bioavailability: male, Sprague Dawley, rat, plasma; for bioavailability: oral, intragastric administration 10 mg/kg vs intravenous 2 mg/kg, read-out: Bioavailability F. The text has this: The test animals in the study were SD male rats, and the LC/MS/MS method was used to quantitatively determine the drug concentration in the plasma of the rats at different time points after intravenous injection or oral administration of the test compounds and the reference compound, thus evaluating the pharmacokinetic characteristics of the test drugs in the rats.
Sprague Dawley (SD) rats (male, 200-300 g, 7-10 weeks old, Beijing Vital River or Shanghai SLAC).
Clear solution of the test compound was injected into SD rats (overnight fasting) via the tail vein or administered intragastrically to SD rats (overnight fasting). For intravenous injection, 200 μL of blood was each collected by jugular vein puncture at 0 h (before injection) and 0.0833 h, 0.25 h, 0.5 h, 1 h, 2 h, 4 h, 6 h, 8 h and 24 h (after injection), and then placed in an anticoagulation tube added with EDTA-K2 (Jiangsu KANGJIAN Medical Apparatus Co., Ltd.), and the mixture was thoroughly vortex-mixed at 4° C. and centrifuged at 13000 rpm for 10 min; for intragastric administration, blood was collected by jugular veinpuncture at 0 h (before administration) and 0.5 h, 1 h, 2 h, 4 h, 6 h, 8 h and 24 h (after administration), and then placed in an anticoagulation tube added with EDTA-K2 (Jiangsu KANGJIAN Medical Apparatus Co., Ltd.), and the mixture was thoroughly vortex-mixed and centrifuged at 13000 rpm for 10 min. The plasma concentration was measured by LC-MS/MS method, and the relevant pharmacokinetic parameters were calculated by WinNonlin™ Version 6.3 (Pharsight, Mountain View, Calif.) pharmacokinetic software using non-compartmental model linear logarithmic trapezoid method.

Setting [4] is: intragastric administration 10 mg/kg.

As to `O=C1CCC(c2noc3ccc4cc(OCCNC5CCOCC5)ccc4c23)C(=O)N1` (stereo not drawn) [Hydrochloride of WX039], the concentration for half-maximal inhibition (IC50) in the series on MM.1S was 2.6 nM.
Take `O=C1CCC(c2noc3ccc4ccccc4c23)C(=O)N1` (stereo not drawn) [WX004]: the IC50 with MM.1S turned out to be 6.6 nM; in the series with NCI-H929, 21.2 nM.
As to `O=C1CCC(c2noc3cc4occc4cc23)C(=O)N1` (stereo not drawn) [WX005], in the series with NCI-H929, the 50% inhibitory concentration (IC50) turned out to be 19.1 nM.
For the compound `O=C1CCC(c2noc3ccc4ccoc4c23)C(=O)N1` (stereo not drawn) [WX006], the IC50 with MM.1S amounted to 2 nM.
Take `O=C1CCC(c2noc3ccc4[nH]ccc4c23)C(=O)N1` (stereo not drawn) [WX009]: the “Area under plasma concentration-time curve (0-inf)” value (“Area” for short) in series [1] (iv, 2 mg/kg) was found to be 5.34 µM·h. Besides, in series [1] (po, 10 mg/kg), the “Area” value is 12.29 µM·h, the Peak concentration was determined as 10.52 µM and the Time to peak came to 0.25 h. In addition, the half-life in series [1] (mice, intravenous injection 2 mg/kg, read-out: Half life (converted)) is 0.89 h. Also, the clearance in series [1] (mice, intravenous injection 2 mg/kg, read-out: Plasma clearance) was 23.2 mL/min/kg. Further, the bioavailability in series [1] (mice, oral administration 10 mg/kg vs intravenous 2 mg/kg, read-out: Bioavailability F) was found to be 46.1%. Besides, in series [2], the “Tumor volume (Day 0)” value worked out at 131 ± 12 mm^3, the “Tumor volume (Day 24)” value is recorded as 14 ± 5 mm^3 and the “TGI (Day 24)” value is reported as 105%. Also, in series [3] (setting [4]), the “Area” value came to 26.34 µM·h, the Peak concentration came to 12.75 µM and the Time to peak is 0.50 h. Also, in series [3] (intravenous injection 2 mg/kg), the “Area” value turned out to be 7.92 µM·h, the clearance is 15.9 mL/min/kg and the half-life is 0.9 h. In series [3], the bioavailability came to 66.5%.
Regarding `COc1ccc2c(ccc3onc(C4CCC(=O)NC4=O)c32)c1` (stereo not drawn) [WX013], the 50% inhibitory concentration (IC50) in the series with MM.1S is 4.5 nM.
On the same count and under the same terms, to `CN(C)CCOc1ccc2c(ccc3onc(C4CCC(=O)NC4=O)c32)c1` (stereo not drawn) [WX015] belongs 3.8 nM.
Consider `O=C1CCC(c2noc3ccc4cc(OCCN5CCOCC5)ccc4c23)C(=O)N1` (stereo not drawn) [WX023], for which, in the series on MM.1S, the IC50 was determined as 6.4 nM. Besides, the bioavailability in series [1] came out at 100%. For the same compound, in series [1] (iv, 2 mg/kg), the “Area” value is 6.87 µM·h, the clearance turned out to be 11.8 mL/min/kg and the half-life is 3.37 h. In series [1] (po, 10 mg/kg), the “Area” value worked out at 34.40 µM·h, the Peak concentration worked out at 17.50 µM and the Time to peak was determined as 0.25 h. In series [2], the “Tumor volume (Day 0)” value came out at 130 ± 8 mm^3, the “Tumor volume (Day 24)” value is given as 15 ± 4 mm^3 and the “TGI (Day 24)” value was found to be 105%. In series [3] (setting [4]), the “Area” value stood at 19.69 µM·h, the Peak concentration came out at 3.08 µM and the Time to peak is 0.75 h. Further, in series [3] (intravenous injection 2 mg/kg), the “Area” value was determined as 3.76 µM·h, the clearance was 21.7 mL/min/kg and the half-life was 1.24 h. For the same compound, in series [3], the bioavailability is 73.7%. Besides, in the series on NCI-H929, the IC50 stood at 10.3 nM.
`O=C1CCC(c2noc3ccc4cc(OCCN5CCCC5)ccc4c23)C(=O)N1` (stereo not drawn) [WX027]: the IC50 in the series on MM.1S turned out to be 3.4 nM.
On the same count and under the same terms, to `O=C1CCC(c2noc3ccc4cc(CO)ccc4c23)C(=O)N1` (stereo not drawn) [WX061] belongs 3.4 nM.

The term IC50 denotes the concentration that inhibits the measured activity by half. For orientation: half-life means how long it takes for the measured level to halve. In general, clearance refers to a measure of how efficiently the substance is removed, as volume per time. Usually bioavailability stands for dose-corrected exposure relative to a reference, in per cent.
